Reference: patent US12576163B2, “Fluorescent contrast agent with targeting function, and preparation method and use thereof” (priority 2022, dated 2026)

Tests used:
[1] = UV-VIS and fluorescence spectroscopy; format: physicochemical; conditions: UV-VIS spectrum
Experimental: A size of the contrast agent was detected with the Zetasizer nano-ZS. 10 μL of each of MR780 NPs, FITC-MR780 NPs, and FITC-DSPC NPs was taken and added dropwise on a mesh, air-dried, stained with phosphotungstic acid (10 μL, 3.0%), then washed with deionized water, and air-dried. Morphological images of the mannose contrast agents were acquired through high-resolution transmission electron microscopy (HRTEM). Since MR780 NPs need to emit reduced glutathione-responsive fluorescence in a tumor microenvironment, it must be ensured that MR780 NPs can stably restore the fluorescence signal after reacting with reduced glutathione. 10 μL of MR780 NPs was thoroughly mixed with 10 mM reduced glutathione, and a resulting mixture was shaken at room temperature in the dark; and the fluorescence restoration of MR780 NPs in each group was tested at 10 min, 1 h, 2 h, and 4 h. The UV-VIS spectroscopy and fluorescence spectroscopy were conducted respectively on a UV-VIS spectrophotometer and a fluorescence spectrophotometer.

[2] = system: induced RAW264.7 cells (CD206); conditions: pre-blocking 2 h at 10-100 mg/mL, then FITC-MR780 NPs 40 μg/mL 2 h; FCM
Experimental: After 2 h of co-incubation, the DMEM was changed, FITC-MR780 NPs 40 μg/mL was added in each group, and then co-incubation was conducted for 2 h. A fluorescence signal of FITC in cells of each group was determined by FCM.
2 h before the blocking experiment, free mannose was added in advance at different concentrations, then FITC-MR780 NPs were added, and then co-incubation was conducted for 2 h. An intracellular fluorescence intensity of FITC was determined by FCM.

[3] = system: CD206 on a surface of RAW264.7 cells; test: Induction of macrophage differentiation, CD206 expression by FCM; format: cell-based, mouse; conditions: 24 h with inducer (IL-4 20 ng/mL; LPS 100 ng/mL)
Experimental: RAW264.7 cells at a logarithmic growth phase were plated in a 6-well plate at a density of 1×10^5 cells/mL, then a DMEM was added at 2 mL/well, the plate was incubated overnight, and then interleukin-4 (IL-4) was added to the culture at a final concentration of 20 ng/mL. The IL-4 was an M2 macrophage inducer. In a control group, an M1 macrophage inducer lipopolysaccharide (LPS) was added to the culture at a final concentration of 100 ng/mL and then incubated for 24 h.
The expression of CD206 on a surface of RAW264.7 cells before and after induction was determined by FCM. Cells were digested and centrifuged, 0.5 μg of mouse CD16/32 monoclonal antibody (mAb) was added, and a resulting mixture was incubated at room temperature for 10 min. Then 0.5 mL of a 1× fixation buffer was added, a resulting mixture was incubated in the dark for 20 min and then centrifuged at 350 g for 5 min, and a resulting supernatant was discarded. 2 mL of a membrane disruption solution was added, and a resulting suspension was centrifuged at 350 g for 5 min; and the operation was repeated once. […] 200 μL of PBS was added to resuspend the cells, and the expression of CD206 on a cell surface in each of the two groups was detected by FCM.

CCCN1/C(=C/C=C2\CCCC(/C=C/C3=[N+](CCC)c4ccccc4C3(C)C)=C2Cl)C(C)(C)c2ccccc21.[I-] [IR780]
UV-VIS maximum absorbance / maximum absorption peak [1]: 780 nm

Nc1ccc(O[C@H]2O[C@H](CO)[C@@H](O)[C@H](O)[C@@H]2O)cc1 [free mannose, 4-aminophenyl-α-D-mannopyranoside]
phagocytosis of cells for FITC-MR780 NPs after pre-blocking [2]: decreases significantly

B1: IL-4: interleukin-4, M2 macrophage inducer (protein, UniProt P05112 25-153, looked up)
Interleukin-4: HKCDITLQEIIKTLNSLTEQKTLCTELTVTDIFAASKNTTEKETFCRAATVLRQFYSHHEKDTRCLGATAQQFHRHKQLIRFLKRLDRNLWGLAGLNSCPVKEANQSTLENFLERLKTIMREKYSKCSS
expression of CD206 [3]: 81.22±0.64%
